# Reference: patent US11034715B2, “Ectonucleotidase inhibitors and methods of use thereof” (Calithera Biosciences, Inc., priority 2016, dated 2021)
# Biological target: recombinant CD73 (Homo sapiens (Human), UniProt P21589)
# Test: Inhibition of the CD73 enzyme in vitro (soluble recombinant CD73, AMP, Malachite Green)
# Format: biochemical
# Details: recombinant CD73 0.5 nM, AMP 50 μM, 30 minutes at room temperature
# Description: The concentration of inorganic phosphate was determined using a phosphate standard curve.
# recombinant CD73, sequence (P21589 27-547): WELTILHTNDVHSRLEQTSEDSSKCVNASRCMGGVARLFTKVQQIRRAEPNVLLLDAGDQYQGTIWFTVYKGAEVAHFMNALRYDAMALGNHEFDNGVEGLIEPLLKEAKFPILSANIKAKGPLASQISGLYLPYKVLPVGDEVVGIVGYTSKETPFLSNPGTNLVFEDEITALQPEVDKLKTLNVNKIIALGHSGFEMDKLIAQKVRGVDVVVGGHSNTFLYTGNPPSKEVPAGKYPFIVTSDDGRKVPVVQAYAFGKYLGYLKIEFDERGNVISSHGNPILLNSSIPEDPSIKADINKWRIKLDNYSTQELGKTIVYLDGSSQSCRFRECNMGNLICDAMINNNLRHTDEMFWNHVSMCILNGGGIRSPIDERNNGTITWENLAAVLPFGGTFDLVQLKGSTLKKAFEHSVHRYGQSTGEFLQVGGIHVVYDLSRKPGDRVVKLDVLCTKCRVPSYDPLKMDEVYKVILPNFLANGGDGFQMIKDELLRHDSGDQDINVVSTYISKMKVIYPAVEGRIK
row,IC50 [nM],SMILES
1,686,"CCOC(=O)C(Cc1ccc(OC(F)(F)F)cc1)(OC[C@H]1O[C@@H](n2cnc3c(N)nc(Cl)nc32)[C@@H](F)[C@@H]1O)C(=O)O (single isomer, unassigned) [compound 38]"
2,403,"Nc1nc(Cl)nc2c1ncn2[C@@H]1O[C@H](COC(Cc2cccc(Oc3ccccc3)c2)(C(=O)O)C(=O)O)[C@@H](O)[C@@H]1F [compound 13, 2-(((2R,3R,4S,5R)-5-(6-amino-2-chloro-9H-purin-9-yl)-4-fluoro-3-hydroxytetrahydrofuran-2-yl)methoxy)-2-(3-phenoxybenzyl)malonic acid]"
3,257,"Nc1nc(Cl)nc2c1ncn2[C@@H]1O[C@H](COC(Cc2cccc(C(F)(F)F)c2)(C(=O)O)C(=O)O)[C@@H](O)[C@@H]1F [compound 16, 2-(((2R,3R,4S,5R)-5-(6-amino-2-chloro-9H-purin-9-yl)-4-fluoro-3-hydroxytetrahydrofuran-2-yl)methoxy)-2-(3-(trifluoromethyl)benzyl)malonic acid]"
4,699,"Nc1nc(Cl)nc2c1ncn2[C@@H]1O[C@H](COC(Cc2ccc3ccccc3c2)(C(=O)O)C(=O)O)[C@@H](O)[C@@H]1F [compound 17, 2-(((2R,3R,4S,5R)-5-(6-amino-2-chloro-9H-purin-9-yl)-4-fluoro-3-hydroxytetrahydrofuran-2-yl)methoxy)-2-(naphthalen-2-ylmethyl)malonic acid]"
5,193,"CS(=O)(=O)c1ccc(CC(OC[C@H]2O[C@@H](n3cnc4c(N)nc(Cl)nc43)[C@@H](F)[C@@H]2O)(C(=O)O)C(=O)O)cc1 [compound 21, 2-(((2R,3R,4S,5R)-5-(6-amino-2-chloro-9H-purin-9-yl)-4-fluoro-3-hydroxytetrahydrofuran-2-yl)methoxy)-2-(4-(methylsulfonyl)benzyl) malonic acid]"
6,2650,"O=C(O)C(Cc1ccccc1)(OC[C@H]1O[C@@H](n2cnc3c(NCc4ccccc4)nc(Cl)nc32)[C@@H](F)[C@@H]1O)C(=O)O [compound 28, 2-benzyl-2-(((2R,3R,4S,5R)-5-(6-(benzylamino)-2-chloro-9H-purin-9-yl)-4-fluoro-3-hydroxytetrahydrofuran-2-yl)methoxy)malonic acid]"
7,1910,"Nc1nc(Cl)nc2c1ncn2[C@@H]1O[C@H](COC(Cc2nnn[nH]2)(C(=O)O)C(=O)O)[C@@H](O)[C@@H]1F [compound 50, 2-((1H-tetrazol-5-yl)methyl)-2-(((2R,3R,4S,5R)-5-(6-amino-2-chloro-9H-purin-9-yl)-4-fluoro-3-hydroxytetrahydrofuran-2-yl)methoxy)malonic acid]"
8,1870,"Nc1nc(Cl)nc2c1ncn2[C@@H]1O[C@H](COC(Cc2ccccc2)(C(=O)O)C(=O)O)[C@@H](N)[C@H]1O [compound 51, 2-(((2S,3S,4R,5R)-3-amino-5-(6-amino-2-chloro-9H-purin-9-yl)-4-hydroxytetrahydrofuran-2-yl)methoxy)-2-benzylmalonic acid]"
9,448,"Nc1nc(Cl)nc2c1ncn2[C@@H]1O[C@H](COC(Cc2cccc(-c3nnn[nH]3)c2)(C(=O)O)C(=O)O)[C@@H](O)[C@@H]1F [compound 53, 2-(3-(1H-tetrazol-5-yl)benzyl)-2-(((2R,3R,4S,5R)-5-(6-amino-2-chloro-9H-purin-9-yl)-4-fluoro-3-hydroxytetrahydrofuran-2-yl)methoxy)malonic acid]"
10,220,"Nc1nc(Cl)nc2c1ncn2[C@@H]1O[C@H](COC(Cc2ccc(-c3nnn[nH]3)cc2)(C(=O)O)C(=O)O)[C@@H](O)[C@@H]1F [compound 54, 2-(4-(1H-tetrazol-5-yl)benzyl)-2-(((2R,3R,4S,5R)-5-(6-amino-2-chloro-9H-purin-9-yl)-4-fluoro-3-hydroxytetrahydro-furan-2-yl)methoxy)malonic acid]"
11,168,"Nc1nc(Cl)nc2c1ncn2[C@@H]1O[C@H](COC(Cc2cccc(O)c2)(C(=O)O)C(=O)O)[C@@H](O)[C@@H]1F [compound 56, 2-(((2R,3R,4S,5R)-5-(6-amino-2-chloro-9H-purin-9-yl)-4-fluoro-3-hydroxytetrahydrofuran-2-yl)methoxy)-2-(3-hydroxybenzyl)malonic acid]"
12,142,"Nc1nc(Cl)nc2c1ncn2[C@@H]1O[C@H](COC(Cc2ccc(C(=O)O)cc2F)(C(=O)O)C(=O)O)[C@@H](O)[C@@H]1F [compound 57, 2-(((2R,3R,4S,5R)-5-(6-amino-2-chloro-9H-purin-9-yl)-4-fluoro-3-hydroxytetrahydrofuran-2-yl)methoxy)-2-(4-carboxy-2-fluorobenzyl)malonic acid]"
13,38,"Nc1nc(Cl)nc2c1ncn2[C@@H]1O[C@H](COC(Cc2ccc(C(=O)O)c(F)c2)(C(=O)O)C(=O)O)[C@@H](O)[C@@H]1F [compound 58, 2-(((2R,3R,4S,5R)-5-(6-amino-2-chloro-9H-purin-9-yl)-4-fluoro-3-hydroxytetrahydro-furan-2-yl)methoxy)-2-(4-carboxy-3-fluorobenzyl)malonic acid]"
14,439,"Nc1nc(Cl)nc2c1ncn2[C@@H]1O[C@H](COC(Cc2ccc(C(F)(F)F)o2)(C(=O)O)C(=O)O)[C@@H](O)[C@@H]1F [compound 59, 2-(((2R,3R,4S,5R)-5-(6-amino-2-chloro-9H-purin-9-yl)-4-fluoro-3-hydroxytetrahydro-furan-2-yl)methoxy)-2-((5-(trifluoromethyl)-furan-2-yl)methyl)malonic acid]"
15,51,"Nc1nc(Cl)nc2c1ncn2[C@@H]1O[C@H](COC(Cc2ccc(C(F)(F)F)c(F)c2)(C(=O)O)C(=O)O)[C@@H](O)[C@@H]1F [compound 60, 2-(((2R,3R,4S,5R)-5-(6-amino-2-chloro-9H-purin-9-yl)-4-fluoro-3-hydroxytetrahydro-furan-2-yl)methoxy)-2-(3-fluoro-4-(trifluoromethyl)benzyl) malonic acid]"
16,2250,"Nc1nc(Cl)nc2c1ncn2[C@@H]1O[C@H](COC(Cc2cc(-c3ccccc3)no2)(C(=O)O)C(=O)O)[C@@H](O)[C@@H]1F [compound 61, 2-(((2R,3R,4S,5R)-5-(6-amino-2-chloro-9H-purin-9-yl)-4-fluoro-3-hydroxytetrahydrofuran-2-yl)methoxy)-2-((3-phenylisoxazol-5-yl)methyl)malonic acid]"
17,1220,"Nc1nc(Cl)nc2c1ncn2[C@@H]1O[C@H](COC(Cc2cnn(Cc3ccccc3)c2)(C(=O)O)C(=O)O)[C@@H](O)[C@@H]1F [compound 63, 2-(((2R,3R,4S,5R)-5-(6-amino-2-chloro-9H-purin-9-yl)-4-fluoro-3-hydroxytetrahydro-furan-2-yl)methoxy)-2-((1-benzyl-1H-pyrazol-4-yl)methyl)malonic acid]"
18,860,"Nc1nc(Cl)nc2c1ncn2[C@@H]1O[C@H](COC(Cc2cn[nH]c2)(C(=O)O)C(=O)O)[C@@H](O)[C@@H]1F [compound 64, 2-((1H-pyrazol-4-yl)methyl)-2-(((2R,3R,4S,5R)-5-(6-amino-2-chloro-9H-purin-9-yl)-4-fluoro-3-hydroxytetrahydrofuran-2-yl)methoxy)malonic acid]"
19,31,"Nc1nc(Cl)nc2c1ncn2[C@@H]1O[C@H](COC(Cc2ccc(OCc3ccccc3)cc2)(C(=O)O)C(=O)O)[C@@H](O)[C@@H]1F [compound 65, 2-(((2R,3R,4S,5R)-5-(6-amino-2-chloro-9H-purin-9-yl)-4-fluoro-3-hydroxytetrahydrofuran-2-yl)methoxy)-2-(4-(benzyloxy)benzyl)malonic acid]"
20,133,"Nc1nc(Cl)nc2c1ncn2[C@@H]1O[C@H](COC(Cc2ccc(O)cc2)(C(=O)O)C(=O)O)[C@@H](O)[C@@H]1F [compound 66, 2-(((2R,3R,4S,5R)-5-(6-amino-2-chloro-9H-purin-9-yl)-4-fluoro-3-hydroxytetrahydrofuran-2-yl)methoxy)-2-(4-hydroxybenzyl) malonic acid]"
21,322,"Nc1nc(Cl)nc2c1ncn2[C@@H]1O[C@H](COC(Cc2csc(C(=O)O)n2)(C(=O)O)C(=O)O)[C@@H](O)[C@@H]1F [compound 68, 2-(((2R,3R,4S,5R)-5-(6-amino-2-chloro-9H-purin-9-yl)-4-fluoro-3-hydroxytetrahydro-furan-2-yl)methoxy)-2-((2-carboxythiazol-4-yl)methyl)malonic acid]"
22,74,"Nc1nc(Cl)nc2c1ncn2[C@@H]1O[C@H](COC(Cc2csc(C(=O)O)c2)(C(=O)O)C(=O)O)[C@@H](O)[C@@H]1F [compound 76, 2-(((2R,3R,4S,5R)-5-(6-amino-2-chloro-9H-purin-9-yl)-4-fluoro-3-hydroxytetrahydro-furan-2-yl)methoxy)-2-((5-carboxythiophen-3-yl)methyl)malonic acid]"
23,255,"Nc1nc(Cl)nc2c1ncn2[C@@H]1O[C@H](COC(Cc2ccc(C(=O)O)s2)(C(=O)O)C(=O)O)[C@@H](O)[C@@H]1F [compound 77, 2-(((2R,3R,4S,5R)-5-(6-amino-2-chloro-9H-purin-9-yl)-4-fluoro-3-hydroxytetrahydro-furan-2-yl)methoxy)-2-((5-carboxythiophen-2-yl)methyl)malonic acid]"
24,86,"Nc1nc(Cl)nc2c1ncn2[C@@H]1O[C@H](COC(Cc2ccc(CC(=O)O)cc2)(C(=O)O)C(=O)O)[C@@H](O)[C@@H]1F [compound 78, 2-(((2R,3R,4S,5R)-5-(6-amino-2-chloro-9H-purin-9-yl)-4-fluoro-3-hydroxytetrahydrofuran-2-yl)methoxy)-2-(4-(carboxymethyl)benzyl) malonic acid]"
25,44,"Nc1nc(Cl)nc2c1ncn2[C@@H]1O[C@H](COC(Cc2ccc(Cl)cc2F)(C(=O)O)C(=O)O)[C@@H](O)[C@@H]1F [compound 80, 2-(((2R,3R,4S,5R)-5-(6-amino-2-chloro-9H-purin-9-yl)-4-fluoro-3-hydroxytetrahydrofuran-2-yl)methoxy)-2-(4-chloro-2-fluorobenzyl)malonic acid]"
26,6440,"Nc1nc(Cl)nc2c1ncn2[C@@H]1O[C@H](COC(Cc2cc(C(=O)O)no2)(C(=O)O)C(=O)O)[C@@H](O)[C@@H]1F [compound 83, 2-(((2R,3R,4S,5R)-5-(6-amino-2-chloro-9H-purin-9-yl)-4-fluoro-3-hydroxytetrahydrofuran-2-yl)methoxy)-2-((3-carboxyisoxazol-5-yl)methyl)malonic acid]"

# Same assay, conditions: recombinant CD73 0.5 nM, AMP 50 μM; class symbols (Table 4)
row,IC50 [nM],SMILES
1,< 1000,CCOC(=O)C(Cc1ccccc1)(OC[C@H]1O[C@@H](n2cnc3c(NCc4ccccc4)nc(Cl)nc32)[C@H](O)[C@@H]1O)C(=O)OCC
